# Measurements taken from patent US20240090497A1, “SURFACTANT BLENDS FOR HYPOHALITE-BASED DISINFECTING COMPOSITIONS” (GOJO Industries, Inc., priority 2022, published 2024).
# Experiment: Surface tension of hypohalite-based disinfecting compositions, Wilhelmy plate method
# Format: physicochemical
# Conditions: hypohalite-based disinfecting composition with this surfactant alone (0% or 100% point of the blend plot)
# Protocol: Various combinations of surfactants were tested with respect to the surface tension of hypohalite-based disinfecting compositions comprising the surfactant blend. Specifically, exemplary blends were prepared using varying surfactants having an average tail chain length of a C10 to C14 value. The surfactant blends were tested at varying molar ratios.
# Accordingly, each surfactant blend comprised a first surfactant having a first surfactant surface tension T^1 and a second surfactant having a second surfactant surface tension T^2. The respective overall surface tension T for each surfactant blend was thereafter tested, using the Wilhelmy plate method.
row,Compound,individual surfactant surface tension
1,cocobetaine,34.7 mN/m
2,laureth-6,29.7 mN/m
3,myristamine oxide,32.1 mN/m
4,undeceth-3,26.9 mN/m

# Next, values leading:
row,individual surfactant surface tension,Compound
1,28.7 mN/m,CCCCCCCCCCO[C@@H]1O[C@H](CO)[C@@H](O)[C@H](O)[C@H]1O [decyl glucoside]
2,29.7 mN/m,CCCCCCCCCCCCOS(=O)(=O)[O-].[Na+] [sodium lauryl sulfate]
3,39.8 mN/m,CCCCCCCCCCCCCCOS(=O)(=O)[O-].[Na+] [sodium myristyl sulfate]
4,32.4 mN/m,lauramine oxide
